In patent publication US7968604B2, “Pharmaceutical composition for prevention and treatment of drug or alcohol addiction or bipolar disorder using sodium phenylbutyrate” (priority 2005, dated 2011):

Legend:
Format in all cases: in vivo, Sprague-Dawley rats
[1] = test system: amphetamine-induced locomotor activity; assay: amphetamine-induced (acute) locomotor activity in rats
Experimental: In order to examine effects of a pharmaceutical composition for prevention and treatment of drug or alcohol addiction or bipolar disorder containing sodium phenylbutyrate (PBA) in accordance with the present invention, the following animal experiments were carried out using Sprague-Dawley rats, weighing 250-275 g (upon arrival), (Samtaco Animal Breeding Company, Osan, Korea). A bank of 12 activity boxes was used to measure locomotor activity of animals (Kim & Vezina, 1998). Each box (22×43×33 cm) estimated locomotor activity from photo beam interruptions. Rats were placed in the activity boxes for a 1-hour habituation period. Then, these rats were administered with the respective dosages of the pharmaceutical composition and were immediately placed again in the activity boxes, and locomotor activity and rearing activity of rats were measured for additional 2 hours. […] Rearing activity was also measured by counting upward/downward motion of rats via photo beams installed in the activity boxes. […] Similar to Example 1, different concentrations (0.1, 1.0 and 10.0 mg/kg) of sodium phenylbutyrate were intraperitoneally injected (acute) alone or in combination with amphetamine (1.5 mg/kg) into rats, and locomotor activity of animals was measured for 2 hours. […]

[2] = test system: amphetamine-induced behavioral sensitization; assay: amphetamine-induced behavioral sensitization (chronic) in rats
Experimental: In order to examine effects of a pharmaceutical composition for prevention and treatment of drug or alcohol addiction or bipolar disorder containing sodium phenylbutyrate (PBA) in accordance with the present invention, the following animal experiments were carried out using Sprague-Dawley rats, weighing 250-275 g (upon arrival), (Samtaco Animal Breeding Company, Osan, Korea). A bank of 12 activity boxes was used to measure locomotor activity of animals (Kim & Vezina, 1998). Each box (22×43×33 cm) estimated locomotor activity from photo beam interruptions. Rats were placed in the activity boxes for a 1-hour habituation period. Then, these rats were administered with the respective dosages of the pharmaceutical composition and were immediately placed again in the activity boxes, and locomotor activity and rearing activity of rats were measured for additional 2 hours. Specifically, a computer was adapted to count locomotion of rats via photo beams installed on the top/bottom and right/left of the activity boxes, and such locomotion behavior of rats was confirmed for two hours. Rearing activity was also measured by counting upward/downward motion of rats via photo beams installed in the activity boxes. […]

locomotor activity = locomotor activity after sodium phenylbutyrate alone daily for 7 days; details: rats, 0.1 and 1.0 mg/kg i.p. once a day for 7 days, measured day 1 and day 7
Experimental: In order to examine effects of a pharmaceutical composition for prevention and treatment of drug or alcohol addiction or bipolar disorder containing sodium phenylbutyrate (PBA) in accordance with the present invention, the following animal experiments were carried out using Sprague-Dawley rats, weighing 250-275 g (upon arrival), (Samtaco Animal Breeding Company, Osan, Korea). A bank of 12 activity boxes was used to measure locomotor activity of animals (Kim & Vezina, 1998). Each box (22×43×33 cm) estimated locomotor activity from photo beam interruptions. Rats were placed in the activity boxes for a 1-hour habituation period. Then, these rats were administered with the respective dosages of the pharmaceutical composition and were immediately placed again in the activity boxes, and locomotor activity and rearing activity of rats were measured for additional 2 hours. Specifically, a computer was adapted to count locomotion of rats via photo beams installed on the top/bottom and right/left of the activity boxes, and such locomotion behavior of rats was confirmed for two hours. Rearing activity was also measured by counting upward/downward motion of rats via photo beams installed in the activity boxes. […] On day 1 and day 7 of drug administration, locomotor activity of animals was measured. […]

[3] = test system: cocaine-induced locomotor activity and rearing; assay: cocaine-induced (acute) locomotor activity and rearing in rats
Experimental: In order to examine effects of a pharmaceutical composition for prevention and treatment of drug or alcohol addiction or bipolar disorder containing sodium phenylbutyrate (PBA) in accordance with the present invention, the following animal experiments were carried out using Sprague-Dawley rats, weighing 250-275 g (upon arrival), (Samtaco Animal Breeding Company, Osan, Korea).
A bank of 12 activity boxes was used to measure locomotor activity of animals (Kim & Vezina, 1998). Each box (22×43×33 cm) estimated locomotor activity from photo beam interruptions. Rats were placed in the activity boxes for a 1-hour habituation period. Then, these rats were administered with the respective dosages of the pharmaceutical composition and were immediately placed again in the activity boxes, and locomotor activity and rearing activity of rats were measured for additional 2 hours. […] Rearing activity was also measured by counting upward/downward motion of rats via photo beams installed in the activity boxes. […]
Different concentrations (0.1, 1.0, 5.0 and 10.0 mg/kg) of sodium phenylbutyrate were intraperitoneally injected (acute) alone or in combination with cocaine (15 mg/kg) into rats, and locomotor activity and rearing of animals were measured for 2 hours. […]

## O=C(O)CCCc1ccccc1 [sodium phenylbutyrate]
[1]; i.p. acute, 0.1, 1.0 and 10.0 mg/kg with amphetamine 1.5 mg/kg, measured 2 hours
  effect on increase in amphetamine-induced locomotor activity: decrease an increase in amphetamine-induced locomotor activity
[1]; i.p. acute, with amphetamine 1.5 mg/kg
  dose range at which effects on amphetamine-induced locomotor activity were similarly exhibited: 0.1 to 10.0 mg/kg
[2]; rats, 0.1, 1.0 and 10.0 mg/kg with amphetamine 1.5 mg/kg four times at 2 to 3 day intervals, one-week withdrawal, amphetamine challenge
  effect on amphetamine-induced behavioral sensitization: significant blocking effects against amphetamine-induced behavioral sensitization
[2]; rats, repeated co-administration with amphetamine 1.5 mg/kg
  dose range at which blocking of behavioral sensitization was particularly strong: 0.1 to 1.0 mg/kg
Locomotor activity
  changes in locomotor activity on administration of sodium phenylbutyrate alone: does not result in any significant changes in locomotor activity of animals
[3]; i.p. acute, 0.1, 1.0, 5.0 and 10.0 mg/kg with cocaine 15 mg/kg, measured 2 hours
  effect on increase in cocaine-induced locomotor activity and rearing: reduce an increase in cocaine-induced locomotor activity and rearing of rats in a dose-dependent manner
[3]; i.p. acute, with cocaine 15 mg/kg
  dose at which effects on cocaine-induced locomotor activity and rearing were greatest: 1.0 mg/kg
